Values after ≈ are worked out from the molar mass of the structure shown. Values joined by “and” are separate entries in the source; they are usually repeats but may differ in a detail not shown here. Identical values can stand only once. Like-named read-outs stand apart in the source and are kept apart here. Marks after values point to notes of the source that are not given here. Square brackets hold non-standard residues; d marks the D form. Peptide text beside a SMILES is read from it. Nphe = O=C(O)CNCc1ccccc1; NPrGly = CCCNCC(=O)O
How the values were obtained:
[1] = tested on: P. aeruginosa PA103 T3SS (ExoU secretion); format: cell-based, Pseudomonas aeruginosa
[2] = tested on: Y. pseudotuberculosis Ysc T3SS (YopE secretion); format: cell-based, Yersinia pseudotuberculosis
[3] = tested on: Y. enterocolitica Ysa T3SS (YspF secretion); format: cell-based, Yersinia enterocolitica
[4] = tested on: Salmonella enterica Typhimurium SPI-1 T3SS (SipA, SipC secretion); format: cell-based
[5] = tested on: Salmonella flagellar T3SS (FliC, FliD secretion); format: cell-based, Salmonella enterica Typhimurium; design: key to Fla fliC (Table 2): NE: No effect observed
[6] = tested on: C. trachomatis serovar L2 in HeLa cells; assay: Chlamydia infection of HeLa cells (primary and secondary infection); format: cell-based, Chlamydia trachomatis
Experimental: Primary infections. HeLa cell monolayers were infected with C. trachomatis serovar L2 at a multiplicity of infection (MOI) of 1.0 in the presence of one of the following compounds at 9 μM: DMSO, 4EpDN, or 4EpDN 2Sar. Cells were incubated for 24 h in the presence of the above-listed compounds at 37°C and then fixed with 4% paraformaldehyde (PFA). Cells were stained for IncA (Chlamydia inclusion membrane marker), DNA (with DAPI), and MOMP (Chlamydia major outer membrane protein) simultaneously. This method of staining allows visualization of the inclusion independent of MOMP synthesis or transport. The percentage of cells infected (i.e., stained positively for the listed Chlamydia markers) in the presence of the compounds was quantified using confocal microscopy. Quantifications of inclusion take into account both DAPI staining and indirect immunofluoresence with an antibody to MOMP. Ten randomly selected fields of view were measured per experiment. The data represent three biological replicates.
Secondary infections. HeLa cell monolayers were infected with C. trachomatis serovar L2 at an MOI of 1.0 in the presence of one of the following compounds at 9 μM: DMSO, 4EpDN, or 4EpDN 2Sar. Cells were incubated for 48 h in the presence of the above-listed compounds at 37°C. Infected cells were then lysed, and the lysate was applied to fresh HeLa monolayers to enumerate infectious particles. These secondary infections were fixed in 4% PFA at 24 hpi and were stained against MOMP and DNA. The infectious units per ml (IFU/ml) were calculated by averaging the number of infected cells in each of 10 randomly selected fields of view at ×40 magnification on a confocal microscope and multiplying this by the appropriate dilution and area factors. The data represent four biological replicates.

[7] = tested on: Y. pseudotuberculosis twin arginine translocation (Tat) system; format: cell-based, Yersinia pseudotuberculosis; conditions: culture optical density, 4 and 6 h
[8] = tested on: P. aeruginosa PA103 T3SS (ExsE secretion); format: cell-based, Pseudomonas aeruginosa
P. aeruginosa (PAO1) = format: cell-based, Pseudomonas aeruginosa
Y. pseudotuberculosis = format: cell-based, Yersinia pseudotuberculosis; conditions: 2xYT, 9-120 µM, 12 h
Kinetic solubility = format: physicochemical
Experimental: […] Then, […] of 15 mM stock compound was added to make a solution of 120 μM final concentration with 0.8% DMSO. The solution was shaken at 37°C for ∼2 h. The solution was passed over a 0.7- μM glass fiber filter. Then, the solution was diluted 1:4 in acetonitrile to crash out any proteins. The solution was centrifuged at 500 × g for 10 min. Avoiding the pellet, 10 μl of supernatant was added to a fresh plate with 90 μl of acetonitrile. The final dilution is 40 times lower. Next, 10 μl of 40× dilution of solution was injected on the Orbi-trap. A 1 μM standard was used for the ratiometric comparison, and the assay was done in triplicate.

[9] = tested on: Salmonella T3SS genes (hilA, hilD, invF, sipC, sipA, fliC); assay: mRNA quantification by qPCR of T3SS genes; format: cell-based, Salmonella enterica Typhimurium; conditions: 9 µM, 2 h and 4 h
Experimental: Samples were taken after 3 h of induction. Overnight Salmonella cultures were subcultured into fresh LB with 0.3 M NaCl at 37°C in the presence of 9 μM 4EpDN, 4EpDN 2Sar, or equivalent DMSO. Samples were taken after 2 h and 4 h of induction. Samples were stored in RNAprotect reagent (Qiagen) and processed within a week. Total RNA was isolated using an RNAeasy kit (Qiagen) according to the manufacturer’s instructions, followed by two rounds of Turbo DNase (Thermo Fisher scientific) treatment. A total of 2 μg of RNA was used to make cDNA, and quantitative PCRs (qPCRs) were run with SYBR green PCR master mix (Applied Biosystems). DNA helicase (dnaB) and 16S rRNA genes were used as a reference for P. aeruginosa and Salmonella samples, respectively. Two to three technical replicates were averaged for each sample. Results were analyzed using Bio-Rad CFX software.

HeLa cells = assay: Cytological profiling (CP); format: cell-based; conditions: concentration used in Chlamydia infection
Experimental: Briefly, HeLa cells were cultured and seeded into 384-well plates at 2,500 cells/well. After 48 h, compounds were added using a Janus MDT robot (PerkinElmer). Two stain sets were used—stain set 1, Hoechst, EdUrhodamine, anti-phosphohistone H3, and GM130; stain set 2, Hoechst, fluorescein isothiocyanate (FITC)-alpha tubulin, rhodamine-phalloidin, and calnexin. For stain set 1, cells were incubated with 20 μM EdUrhodamine for 1 h prior to fixing in 4% formaldehyde solution in PBS for 20 min. Cells were then washed with PBS and permeabilized with 0.5% Triton X-100 in PBS for 10 min before blocking with 2% BSA in PBS solution for at least 1 h. Following this, cells were incubated with primary antibodies overnight at 4°C. The following day, excess primary antibody was washed off with PBS and Alexa-488, and Alexa-647 secondary antibodies and Hoechst solution were incubated for 1 h. Plates were washed with PBS and preserved with 0.1% sodium azide in PBS solution prior to imaging. For stain set 2, cells were fixed with a 4% formaldehyde solution in PBS for 20 min. Cells were then washed with PBS and permeabilized with 0.5% Triton X-100 in PBS for 10 min before blocking with 2% BSA in PBS solution for at least 1 h. Following this, cells were incubated with primary antibodies overnight at 4°C. […]

[10] = tested on: Salmonella enterica Typhimurium SPI-1 T3SS; conditions: culture-based secretion assay; ref [102]; read-out: IC50, SipC secretion; cited from earlier work
flagella (Fla), fliC = tested on: flagella (Fla), fliC; design: key: NE: No effect observed; conditions: ref [102]; cited from earlier work

## CCCN1CC(=O)N(Cc2ccccc2)CC(=O)N[C@@H](CC(C)C)C(=O)N[C@@H]([C@@H](C)CC)C(=O)N[C@H](CC(C)C)C(=O)N[C@H](Cc2ccccc2)C1=O [4EpDN, 4-EpD1,2N] (cyclo(I[dL][dF][NPrGly][Nphe]L))
[1]
  fold more potent than its parental compound: 2 fold
[1]; 9 µM
  inhibition of ExoU secretion: ~75%
[1]; 60 µM
  inhibition of ExoU secretion: ~75%
[1]; read-out: IC50, inhibition of secretion of T3SS effector ExoU
  IC50: 3900 nM
[2]; Table 2, Ysc, culture-based secretion assay
  lowest known inhibitory concentration (∼), YopE secretion: ∼7.5 YopE^b μM
[2]; same concentration as YscF staining (60 μM)
  T3SS effector secretion inhibited, fold: 4 fold
[3]
  IC50: 16100 nM
  secretion of YspF, in words: inhibited secretion of YspF in a dose-dependent manner
[4]; read-out: IC50, SipAC secretion (SPI-1 T3SS)
  IC50: 1000 nM
[4]; read-out: IC50, SipC secretion
  IC50: ~1000 nM and ~800 nM
[5]
  Fla fliC (Table 2): NE^d
  concentration inhibiting FliC secretion: ≥ 60 µM
[6]; 9 μM, EBs collected at 48 hpi, fresh monolayers 24 h
  inhibition of formation of infectious progeny: ~98%
[6]; 9 μM, HeLa cells, 24 hpi
  decrease of primary inclusion formation: ~50%
[6]; Table 2, Chlamydiales
  lowest known inhibitory concentration (∼), cell-based infection assay, Chlamydia: ∼9^c μM
[7]
  growth of SufI-β-lactamase Tat reporter bacteria in penicillin G / Tat inhibition, in words: does not inhibit the Tat secretion system
[8]; 9 µM
  inhibition of ExsE secretion: did not significantly inhibit
[8]; 60 µM
  inhibition of ExsE secretion: ~40%
P. aeruginosa (PAO1)
  bacterial viability in broth culture: did not affect bacterial viability
Y. pseudotuberculosis
  bacterial viability in broth culture: did not affect bacterial viability
Kinetic solubility
  solubility kinetic: 13 µM (≈ 9.53 µg/mL)
Kinetic solubility; DMEM (no antibiotics)
  solubility: 12 µM (≈ 8.8 µg/mL)
Kinetic solubility; M9
  solubility: 10 µM (≈ 7.33 µg/mL)
[9]
  expression of T3SS genes (qPCR), in words: nor did it impact T3SS gene transcription
HeLa cells
  changes to actin cytoskeleton, Golgi network, endoplasmic reticulum, microtubule network: did not show any gross changes

## CCCCCCCC(=O)c1c(O)cc(O)cc1CC(=O)OCC [Cytosporone B]
[10]
  IC50: 6250 nM
Flagella (Fla), fliC
  Fla fliC: NE^d

From publication PMC8373237 (Antimicrobial Agents and Chemotherapy, 2021)
